In brackets after ≈: the same amount, converted by molar mass.
What was measured:
Format in all cases: functional
Staphylococcus aureus [1] = assay: Antimicrobial activity against compound treated Staphylococcus aureus harboring mgrA C12S mutant gene retro-orbitally infected into mouse assessed as reduction in bacterial CFU in kidney at 10 ug/ml relative to control
Staphylococcus aureus [2] = assay: Antimicrobial activity against compound treated Staphylococcus aureus harboring mgrA C12S mutant gene retro-orbitally infected into mouse assessed as reduction in bacterial CFU in liver at 10 ug/ml relative to control
Staphylococcus aureus [3] = assay: Antimicrobial activity against Staphylococcus aureus
Staphylococcus aureus [4] = assay: Antimicrobial activity against Staphylococcus aureus expressing mgrA C12S mutant gene

What does the source list for `CC[C@H]1OC(=O)[C@H](C)[C@@H](O[C@H]2C[C@@](C)(OC)[C@@H](O)[C@H](C)O2)[C@H](C)[C@@H](O[C@@H]2O[C@H](C)C[C@H](N(C)C)[C@H]2O)[C@](C)(O)C[C@@H](C)C(=O)[C@H](C)[C@@H](O)[C@]1(C)O` [ERYTHROMYCIN]?
fold change (FC) (Staphylococcus aureus [1]): 10000; fold change (FC) (Staphylococcus aureus [2]): 100

What does the source list for `CCn1cc(C(=O)O)c(=O)c2cc(F)c(N3CCNCC3)cc21` [NORFLOXACIN]?
MIC (Staphylococcus aureus [3]): 0.7 µg/mL (≈ 2.19 µM); MIC (Staphylococcus aureus [4]): 1.4 µg/mL (≈ 4.38 µM)

Source: ChEMBL document CHEMBL1240316, “An oxidation-sensing mechanism is used by the global regulator MgrA in Staphylococcus aureus” (2006)
